The text below walks through data of US20030158250A1, “Agents correcting gene expression regulatory error” (priority 2000, published 2003).

This experiment deals with TNFα. Nature of the experiment: LPS-stimulated TNFα production in monocytes (ELISA). It is filed as cell-based. To be noted: human monocytes, final concentration 10 μM, 20 μM or 40 μM, 5 hours, then LPS 4 hours. As to the method:
PBMCs were isolated in the same manner as in item (1) of Example 4. PBMCs were suspended in RPMI 1640 medium containing 5% human serum of blood type-AB, 0.1 mM nonessential amino acid, 1 mM sodium pyruvate, 2 mM L-glutamine (hereinabove manufactured by Bio Whittaker), 10 mM HEPES (manufactured by nakalai tesque), and 1% streptomycin-penicillin (manufactured by Gibco BRL) (hereinafter simply referred to as “5HRPMI medium”) so as to have a concentration of 2×10^6 cells/ml. Thereafter, the suspension was spread on a 24-well cell culture plate (manufactured by Falcon) in a volume of 1 ml/well, and the cells were incubated in a wet-type incubator at 37° C. and 5% CO2 for 1.5 hours. After 1.5 hours, the non-adherent cells were removed by suction, and each well was washed with RPMI 1640 medium, and 1 ml of the 5HRPMI medium was added to the wells, to give monocytes.
To the monocytes obtained above was added in each well 10 μl of a 1 mM, 2 mM or 4 mM aqueous DGE solution (each having a final concentration of 10 μM, 20 μM or 40 μM), or a 5 mM, 10 mM or 20 mM aqueous agarobiose solution (each having a final concentration of 50 μM, 100 μM or 200 μM), or 10 μl of water as a control (i.e. each of concentrations of DGE and agarobiose being 0 μM), and the cells were incubated in a wet-type incubator at 37° C. and 5% CO2 for 5 hours. […]

In the case of `O=C1C=CC(CO)OC1O` [DGE, L-glycero-1,5-epoxy-1αβ,6-dihydroxy-cis-hex-3-en-2-one], the “inhibition of LPS-stimulated TNFα production” value is reported as “inhibition”.
